Experimental data from patent US20230203098A1, “HUMAN TRANSFERRIN RECEPTOR BINDING PEPTIDE” (priority 2020, published 2023).
Read-outs that look alike come from different tables or passages of the source. Blank lines part the entries; values can stand above or below the molecule they belong to. Where a SMILES comes first, the peptide text is derived from it. Bridges are numbered along the chain shown (N, C = ends). [ ]: non-standard residue; d: D form. The star is where a group is joined. X2 = O=C(O)c1cc(C(=O)*)ccc1-c1c2ccc(=O)cc-2oc2cc(O)ccc12; PEG12 = NCCOCCOCCOCCOCCOCCOCCOCCOCCOCCOCCOCCOCCC(=O)O; NMeY = CN[C@@H](Cc1ccc(O)cc1)C(=O)O; NMeF = CN[C@@H](Cc1ccccc1)C(=O)O; Ahp(2) = CCCCC[C@H](N)C(=O)O

Target: transferrin receptor (hTfR) (Homo sapiens, UniProt P02786)
Assay: Intermolecular interaction evaluation test between transferrin receptor (hTfR) and peptide by surface plasmon resonance (SPR)
Type: binding
How it was run: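 Receptor was Ni-captured and EDC/NHS-fixed on an NTA chip; running buffer HEPES pH 8.0 with NaCl, Tween 20, BSA and 1.0% DMSO.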

[1] = SPR, hTfR No. 894 variants with PEG12c linker (Table 2), read-out: KD
[2] = binding to hTfR by SPR, Table 2 peptides, read-out: KD value (SPR) class
[3] = surface plasmon resonance, peptide vs hTfR, read-out: KD value, hTfR binding by SPR (class symbol)

Chain of transferrin receptor (hTfR) (P02786 whole entry): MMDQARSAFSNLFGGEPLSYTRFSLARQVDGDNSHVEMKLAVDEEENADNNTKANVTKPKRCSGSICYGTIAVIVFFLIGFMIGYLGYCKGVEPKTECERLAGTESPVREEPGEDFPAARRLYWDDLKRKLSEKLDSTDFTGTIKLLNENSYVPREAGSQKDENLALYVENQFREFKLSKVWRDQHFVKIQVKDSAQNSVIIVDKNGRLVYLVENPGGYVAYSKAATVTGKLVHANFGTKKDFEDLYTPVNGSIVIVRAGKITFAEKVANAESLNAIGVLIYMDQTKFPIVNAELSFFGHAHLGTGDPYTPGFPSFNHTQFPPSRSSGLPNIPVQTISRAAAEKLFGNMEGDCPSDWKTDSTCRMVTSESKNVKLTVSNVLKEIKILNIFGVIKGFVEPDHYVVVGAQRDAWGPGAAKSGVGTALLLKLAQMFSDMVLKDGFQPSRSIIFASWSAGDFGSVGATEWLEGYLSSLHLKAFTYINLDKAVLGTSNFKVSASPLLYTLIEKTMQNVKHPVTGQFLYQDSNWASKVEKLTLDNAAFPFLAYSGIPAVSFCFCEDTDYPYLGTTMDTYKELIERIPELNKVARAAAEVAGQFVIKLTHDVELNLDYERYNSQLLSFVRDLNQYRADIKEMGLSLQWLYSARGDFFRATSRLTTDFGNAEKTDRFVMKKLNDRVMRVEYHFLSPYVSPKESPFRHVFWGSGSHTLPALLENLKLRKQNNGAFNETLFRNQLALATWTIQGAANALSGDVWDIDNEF

Kd (SPR, hTfR, class symbols A-D, read-out: KD (column without head, continuation of the table series)): < 1 nM
SMILES: CC[C@H](C)[C@@H]1NC(=O)[C@H](Cc2ccc(OC)cc2)NC(=O)[C@H](Cc2ccc(O)cc2)NC(=O)[C@H](CC(N)=O)NC(=O)[C@H](Cc2c[nH]c3ccccc23)NC(=O)[C@H](C(C)C)NC(=O)[C@H](Cc2cccc(Cl)c2)N(C)C(=O)[C@H](C(C)C)NC(=O)[C@H](C)NC(=O)CSC[C@@H](C(=O)NCCOCCOCCOCCOCCC(N)=O)NC(=O)[C@H](Cc2ccc(O)cc2)N(C)C(=O)[C@H](Cc2ccccc2)NC(=O)[C@H](CCCNC(=N)N)NC(=O)[C@H](CCCCN)NC(=O)[C@H]([C@@H](C)CC)NC1=O [compound 503]

Kd [3]: 1 to 100 nM
SMILES: CC[C@H](C)[C@@H]1NC(=O)[C@H](Cc2ccc(O)cc2)NC(=O)[C@H](Cc2ccc(O)cc2)NC(=O)[C@H](CC(N)=O)NC(=O)[C@H](Cc2c[nH]c3ccccc23)N(C)C(=O)[C@H](C(C)C)NC(=O)[C@H](Cc2cc(Cl)cc(Cl)c2)N(C)C(=O)[C@H](C(C)C)NC(=O)[C@H](C)NC(=O)CSC[C@@H](C(N)=O)NC(=O)[C@H](Cc2ccc(O)cc2)N(C)C(=O)[C@H](Cc2ccccc2)NC(=O)[C@@H](CCCNC(=N)N)NC(=O)[C@H](CCCNC(=N)N)NC(=O)[C@H]([C@@H](C)CC)NC1=O [compound 302]

Kd [3]: 1 to 100 nM
SMILES: CC[C@H](C)[C@@H]1NC(=O)[C@H](Cc2ccc(O)cc2)NC(=O)[C@H](Cc2ccc(O)cc2)NC(=O)[C@H](CC(N)=O)NC(=O)[C@H](Cc2c[nH]c3ccccc23)NC(=O)[C@H](C(C)C)NC(=O)[C@H](Cc2ccccc2)N(C)C(=O)[C@H](C(C)C)NC(=O)[C@H](C)NC(=O)CSC[C@@H](C(N)=O)NC(=O)[C@H](Cc2ccc(O)cc2)N(C)C(=O)[C@H](Cc2ccc(O)cc2)NC(=O)[C@H](CCCNC(=N)N)NC(=O)[C@H](CCCCN)N(C)C(=O)[C@H]([C@@H](C)CC)NC1=O [compound 292]

Kd [2]: < 1 nM
SMILES: CC[C@H](C)[C@@H]1NC(=O)[C@H](Cc2ccc(O)cc2)NC(=O)[C@H](Cc2ccc(O)cc2)NC(=O)[C@H](CC(N)=O)NC(=O)[C@H](Cc2c[nH]c3ccccc23)NC(=O)[C@H](C(C)C)NC(=O)[C@H](Cc2ccccc2)NC(=O)[C@H](C(C)C)NC(=O)[C@H](C)NC(=O)CSC[C@@H](C(N)=O)NC(=O)[C@H](Cc2ccc(O)cc2)N(C)C(=O)[C@H](Cc2ccc(O)cc2)NC(=O)[C@H](CCCNC(=N)N)NC(=O)[C@H](CCCNC(=N)N)NC(=O)[C@H](CCCCN)NC1=O [compound 249] ({CH2CO}-AVFVWNYYIKRRY[NMeY]C-NH2; thioether N-15)

Kd [3]: 1 to 100 nM
SMILES: CC[C@H](C)[C@@H]1NC(=O)[C@H](Cc2ccc(O)cc2)NC(=O)[C@H](Cc2ccc(O)cc2)NC(=O)[C@H](CC(N)=O)NC(=O)[C@H](Cc2c[nH]c3ccccc23)NC(=O)[C@H](C(C)C)NC(=O)[C@H](Cc2ccccc2)N(C)C(=O)[C@H](C(C)C)NC(=O)[C@H](C)NC(=O)CSC[C@@H](C(N)=O)NC(=O)[C@H](Cc2ccc(O)cc2)N(C)C(=O)[C@H](Cc2ccc(O)cc2)NC(=O)[C@H](CCCNC(=N)N)NC(=O)[C@H](CCCNC(=N)N)NC(=O)[C@H]([C@@H](C)CC)NC1=O [compound 296]

Kd [2]: 1 to 100 nM
SMILES: CC[C@H](C)[C@@H]1NC(=O)[C@H](Cc2ccc(O)cc2)NC(=O)[C@H](Cc2ccc(O)cc2)NC(=O)[C@H](CC(N)=O)NC(=O)[C@H](Cc2c[nH]c3ccccc23)NC(=O)[C@H](C(C)C)NC(=O)[C@H](Cc2ccccc2)NC(=O)[C@H](C(C)C)NC(=O)[C@H](C)NC(=O)CSC[C@@H](C(N)=O)NC(=O)[C@H](Cc2ccc(O)cc2)N(C)C(=O)[C@H](CCC(=O)O)NC(=O)[C@H](CCCNC(=N)N)NC(=O)[C@H](CCCNC(=N)N)NC(=O)[C@H]([C@@H](C)CC)NC1=O [compound 259]

Continued, molecule first:

SMILES: CC[C@H](C)[C@@H]1NC(=O)[C@H](Cc2ccc(O)cc2)NC(=O)[C@H](Cc2ccc(O)cc2)NC(=O)[C@H](CC(N)=O)NC(=O)[C@H](Cc2ccc(OC)cc2)NC(=O)[C@H](C(C)C)NC(=O)[C@H](Cc2ccccc2)N(C)C(=O)[C@H](C(C)C)NC(=O)[C@H](C)NC(=O)CSC[C@@H](C(=O)NCCOCCOCCOCCOCCOCCOCCOCCOCCOCCOCCOCCOCCC(N)=O)NC(=O)[C@H](Cc2ccc(O)cc2)N(C)C(=O)[C@H](Cc2ccc(O)cc2)NC(=O)[C@H](CCCNC(=N)N)NC(=O)[C@H](CCCNC(=N)N)NC(=O)[C@H]([C@@H](C)CC)NC1=O [compound 118] ({CH2CO}-AV[NMeF]VY(Me)NYYIIRRY[NMeY]C[PEG12]-NH2; thioether N-15)
Kd [1]: 1 to 100 nM

SMILES: CC[C@H](C)[C@@H]1NC(=O)[C@H](Cc2ccc(OC)cc2)NC(=O)[C@H](Cc2ccc(O)cc2)NC(=O)[C@H](CC(N)=O)NC(=O)[C@H](Cc2c[nH]c3ccccc23)N(C)C(=O)[C@H](C(C)C)NC(=O)[C@H](Cc2cccc(Cl)c2)N(C)C(=O)[C@H](C(C)C)NC(=O)[C@H](C)NC(=O)CSC[C@@H](C(=O)NCC(=O)NCC(=O)NCC(=O)NCC(=O)N[C@@H](CO)C(=O)N[C@@H](CO)C(=O)N[C@@H](CS)C(N)=O)NC(=O)[C@H](Cc2ccc(O)cc2)N(C)C(=O)[C@H](Cc2ccccc2)NC(=O)[C@@H](CCCNC(=N)N)NC(=O)[C@H](CCCNC(=N)N)NC(=O)[C@H]([C@@H](C)CC)NC1=O [compound 401]
Kd: 1 to 100 nM

SMILES: CC[C@H](C)[C@@H]1NC(=O)[C@H](Cc2ccc(OC)cc2)NC(=O)[C@H](Cc2ccc(O)cc2)NC(=O)[C@H](CC(N)=O)NC(=O)[C@H](Cc2c[nH]c3ccccc23)N(C)C(=O)[C@H](C(C)C)NC(=O)[C@H](Cc2cccc(Cl)c2)N(C)C(=O)[C@H](CCC(=O)O)NC(=O)[C@H](C)NC(=O)CSC[C@@H](C(=O)NCC(=O)NCC(=O)NCC(=O)NCC(=O)N[C@@H](CO)C(=O)N[C@@H](CO)C(=O)N[C@@H](CS)C(N)=O)NC(=O)[C@H](Cc2ccc(O)cc2)N(C)C(=O)[C@H](Cc2ccccc2)NC(=O)[C@H](CCC(=O)O)NC(=O)[C@H](CCCNC(=N)N)NC(=O)[C@H]([C@@H](C)CC)NC1=O [compound 231]
Kd [2]: 1 to 100 nM

SMILES: CC[C@H](C)[C@@H]1NC(=O)[C@H](Cc2ccc(O)cc2)NC(=O)[C@H](Cc2ccc(O)cc2)NC(=O)[C@H](CC(N)=O)NC(=O)[C@H](Cc2c[nH]c3ccccc23)N(C)C(=O)[C@H](C(C)C)NC(=O)[C@H](Cc2ccccc2)N(C)C(=O)[C@H](C(C)C)NC(=O)[C@H](C)NC(=O)CSC[C@@H](C(=O)NCCOCCOCCOCCOCCOCCOCCOCCOCCOCCOCCOCCOCCC(=O)N[C@@H](CCCCNC(=O)C2CCC(CN3C(=O)C=CC3=O)CC2)C(N)=O)NC(=O)[C@H](Cc2ccc(O)cc2)N(C)C(=O)[C@H](Cc2ccc(O)cc2)NC(=O)[C@H](CCCNC(=N)N)NC(=O)[C@H](CCCNC(=N)N)NC(=O)[C@H]([C@@H](C)CC)NC1=O (some centres unmarked) [compound 183]
Kd (hTfR binding by SPR, hTfR No. 894 variant peptides, linker-added peptides and payload conjugates (Table 2), read-out: KD value obtained from the SPR measurement): 1 to 100 nM

SMILES: CC[C@H](C)[C@@H]1NC(=O)[C@H](Cc2ccc(O)cc2)NC(=O)[C@H](Cc2ccc(O)cc2)NC(=O)[C@H](CC(N)=O)NC(=O)[C@H](Cc2c[nH]c3ccccc23)NC(=O)[C@H](C(C)C)NC(=O)[C@H](Cc2c[nH]c3ccccc23)NC(=O)[C@H](C(C)C)NC(=O)[C@H]([C@@H](C)O)NC(=O)[C@H](CCCNC(=N)N)NC(=O)[C@H](CO)NC(=O)[C@H](CC(N)=O)NC(=O)[C@H](C)NC(=O)CSC[C@@H](C(=O)NCCOCCOCCOCCOCCOCCOCCOCCOCCOCCOCCOCCOCCC(=O)N[C@@H](CCCCNC(=O)c2ccc(-c3c4ccc(=O)cc-4oc4cc(O)ccc34)c(C(=O)O)c2)C(N)=O)NC(=O)[C@H](CCCNC(=N)N)NC(=O)[C@H]([C@@H](C)O)NC(=O)[C@H](C(C)C)NC1=O [compound 157] ({CH2CO}-ANSRTVWVWNYYIVTRC[PEG12]K(X2)-NH2; thioether N-17)
Kd (SPR, linker and payload (FITC, VivoTag) conjugates, read-out: KD): 1 to 100 nM

SMILES: CC[C@H](C)[C@@H]1NC(=O)[C@H](Cc2ccc(OC)cc2)NC(=O)[C@H](Cc2ccc(O)cc2)NC(=O)[C@H](CC(N)=O)NC(=O)[C@H](Cc2c[nH]c3ccccc23)N(C)C(=O)[C@H](C(C)C)NC(=O)[C@H](Cc2cccc(Cl)c2)N(C)C(=O)[C@H](CN)NC(=O)[C@H](C)NC(=O)CSC[C@@H](C(=O)NCC(=O)NCC(=O)NCC(=O)NCC(=O)N[C@@H](CO)C(=O)N[C@@H](CO)C(=O)N[C@@H](CS)C(N)=O)NC(=O)[C@H](Cc2ccc(O)cc2)N(C)C(=O)[C@H](Cc2ccccc2)NC(=O)[C@@H](CCCNC(=N)N)NC(=O)[C@H](CCCNC(=N)N)NC(=O)[C@H]([C@@H](C)CC)NC1=O [compound 239]
Kd: 1 to 100 nM

SMILES: CC[C@H](C)[C@@H]1NC(=O)[C@H](Cc2ccc(O)cc2)NC(=O)[C@H](Cc2ccc(O)cc2)NC(=O)[C@H](CC(N)=O)NC(=O)[C@H](Cc2c[nH]c3ccccc23)NC(=O)[C@H](C(C)C)NC(=O)[C@H](Cc2ccccc2)N(C)C(=O)[C@H](C(C)C)NC(=O)[C@H](C)NC(=O)CSC[C@@H](C(=O)NCCOCCOCCOCCOCCOCCOCCOCCOCCOCCOCCOCCOCCC(N)=O)NC(=O)[C@H](Cc2ccc(O)cc2)N(C)C(=O)[C@H](C)NC(=O)[C@H](CCCNC(=N)N)NC(=O)[C@H](CCCNC(=N)N)NC(=O)[C@H]([C@@H](C)CC)NC1=O [compound 123]
Kd [1]: 1 to 100 nM

SMILES: CCCCC[C@@H]1NC(=O)[C@H](Cc2ccc(O)cc2)NC(=O)[C@H](CC(N)=O)NC(=O)[C@H](Cc2c[nH]c3ccccc23)NC(=O)[C@H](C(C)C)NC(=O)[C@H](Cc2ccccc2)N(C)C(=O)[C@H](C(C)C)NC(=O)[C@H](C)NC(=O)CSC[C@@H](C(=O)NCCOCCOCCOCCOCCOCCOCCOCCOCCOCCOCCOCCOCCC(N)=O)NC(=O)[C@H](Cc2ccc(O)cc2)N(C)C(=O)[C@H](Cc2ccc(O)cc2)NC(=O)[C@H](CCCNC(=N)N)NC(=O)[C@H](CCCNC(=N)N)NC(=O)[C@H]([C@@H](C)CC)NC(=O)[C@H]([C@@H](C)CC)NC1=O [compound 139] ({CH2CO}-AV[NMeF]VWNY[Ahp(2)]IIRRY[NMeY]C[PEG12]-NH2; thioether N-15)
Kd [1]: 1 to 100 nM
